The text below walks through data of patent publication US12409176B2, “Methods of treating acute depression” (INTRA-CELLULAR THERAPIES, INC., priority 2018, dated 2025).

Data set [1] concerns the target serotonin transporter (SERT) (Homo sapiens, UniProt P31645). Kind of data set: Comparative serotonin transporter (SERT) inhibition among antipsychotic agents (FIG. 3). Format: biochemical. Particulars: FIG. 3, compared among antipsychotic drugs.
Data set [2] can be described thus: Antidepressant-like behaviors in rodents. Format: in vivo.
Data set [3] has as its system hippocampal cytokine mRNA (IL-1β, IL-6, TNFα, CCL2, IL-4, IL-10). Nature of the data set: LPS-induced stress: hippocampal cytokine mRNA by qPCR (FIG. 9, 10). Format: in vivo, mice. How it is done: Male, C57/B16 mice (n=6-12/group) are divided into five groups-control (vehicle/saline), vehicle/LPS, and […] at three different doses of ITI-007. Mice are first injected i.p. with either vehicle (5% DMSO, 5% Tween, 15% PEG, 75% water) or ITI-007 at 0.3 mg/kg, 3.0 mg/kg or 8.0 mg/kg. The mice are then immediately injected s.c. with either 0.9% saline or with 500 μg/kg lipopolysaccharide (LPS) diluted in 0.9% saline. After two hours, the animals are sacrificed, and hippocampal slices are obtained and analyzed for cytokine mRNA using qPCR. The results are shown in FIG. 9, normalized to the control group using the delta ct method. […] The results are shown in FIG. 10, normalized to the control group.

In data set [4] the test system is hippocampal pro- and anti-inflammatory cytokine expression. Nature of the data set: Restraint stress: hippocampal cytokine expression by qPCR (FIG. 1). To be noted: 3 mg/kg i.p., 2 h restraint stress, not statistically significant. Format: in vivo, mice. On the procedure:
(§1) Male, C57/B16 mice (n=6-7/group) are divided into three groups—control (vehicle alone, no stress), vehicle—stress (vehicle, i.p.), or ITI-007—stress (3 mg/kg, i.p. in vehicle). For induction of stress, mice are placed in a plastic “decapicones” and placed on the bottom of a warm, clean rodent cage for a 2 h period. These plastic “decapicones” produce an acute restraint stress which triggers neuroinflammation in both hippocampal tissue and peripherally (as shown by serum). At the end of the stress exposure, mice are killed; blood is taken for serum preparation and brain tissue for analysis. Serum is prepared from blood; cytokine measures are performed using MSD multiplex analysis. Brain tissue is analyzed by qPCR for pro-inflammatory cytokine mRNA expression.
In general terms: Real-time PCR tracks product formation cycle by cycle.

Data set [5] deals with serum cytokines (IL-1β, IL-6, TNF, IL-10, IFN-gamma). Kind of data set: Restraint stress: serum cytokines by MSD multiplex (FIG. 2). To be noted: pre-treatment 3 mg/kg i.p., 2 h restraint stress. Format: in vivo, mice. How it is done:
as §1

Data set [6] relates to NMDA receptor currents in mPFC pyramidal neurons. Kind of data set: NMDA currents in mPFC slices, whole-cell patch clamp (FIG. 4). Format: cell-based, rat. A general note: The patch-clamp technique gives a direct electrical read-out from membranes.
For data set [7], the system named is AMPA receptor currents in mPFC pyramidal neurons. Kind of data set: AMPA currents in mPFC slices, whole-cell patch clamp (FIG. 5, 6). Format: cell-based. Particulars: bath applied to rat mPFC slices, 3-100 nM, 5 min later. An excerpt:
Combined administration of the antipsychotic, olanzapine, and the SSRI, fluoxetine, similarly induces rapid antidepressant activity in humans and animals (Tohen et al., 2010); likewise, combined application of olanzapine and fluoxetine is required to induce AMPA receptor currents in vitro.

Data set [8] deals with mTORC1 signaling pathway (AKT Thr308, mTOR Ser2448, P70s6 kinase Thr389). Nature of the data set: mTOR signaling pathway phosphoprotein levels in prefrontal cortex (FIG. 7, 8). Format: in vivo, rat. To be noted: for mTOR phosphorylation (Serine 2448) / p70s6K phosphorylation (Threonine 389) / phosphorylation of AKT at thr308: rat PFC; for mTOR phosphorylation (Serine 2448) / p70s6K phosphorylation (Threonine 389): lumateperone 3 mg/kg or ketamine 30 mg/kg i.p.; for mTOR phosphorylation (Serine 2448) / phosphorylation of AKT at thr308: 1 hour and 24 hours; for p70s6K phosphorylation (Threonine 389): over the 24 hour period; for phosphorylation of AKT at thr308: one i.p. injection, lumateperone 3 mg/kg or ketamine 30 mg/kg, vs saline. On the procedure:
It is known that upstream and downstream effectors of the mTOR (e.g., mTORC1) signaling pathway are increased in the mPFC of rats 1 hour and 24 hours after administration of the rapid-acting antidepressant ketamine.
Pre-frontal cortical phosphorylation levels of AKT (at Threonine 308), mTOR (at Serine 2448) or P70s6 kinase (at Threonine 389) are evaluated after normalization to total protein levels for each target, at both 1 hour and 24 hours. Results are shown as the percent relative change compared to placebo (saline).

In data set [9] the test system is hippocampal gene expression. Nature of the data set: NanoString Mouse Neuropathology panel, hippocampal mRNA after LPS. To be noted: Lumateperone/LPS compared to vehicle/LPS, 3 mg/kg i.p., 2 hours. Format: in vivo, mice. On the procedure: Immediately after this injection, the mice are injected with either LPS (500 μg/kg diluted in 0.9% saline) or with 0.9% saline. After 2 hours, the mice are sacrificed, and hippocampal mRNA is obtained, as described in Example 1. Hippocampal RNA concentration and integrity are evaluated using an Agilent 2100 Bioanalyzer. Sample preparation, hybridization and detection are carried out according to NanoString manufacturer's instructions (NanoString technologies, WA). RNA (100 ng) expression profiling is performed using the nCounter NanoString Mouse Neuropathology panel, and data are analyzed using the nSolver software to produce and compare direct counts of mRNA. […] The neuropathology panel was developed to include genes of relevance for research in models of neurodegenerative and neurological disorders, such as Alzheimer's disease, Parkinson's disease, Amyotrophic Lateral Sclerosis, Frontotemporal Dementia, and Huntington's disease. The panel includes 770 genes associated with themes of neurotransmission, neuron-glia interaction, neuroplasticity, cell structure integrity, neuroinflammation and metabolism

Data set [10] is described as follows: Safety and tolerability in humans. Format: in vivo.
The nature of data set [11]: Symptoms of depression in patients with schizophrenia. Format: in vivo, human.
The test system of data set [12] is mTORC1 signaling pathway (AKT Thr308, mTOR Ser2448, P70s6 kinase Thr389). Nature of the data set: mTOR signaling pathway phosphoprotein levels in prefrontal cortex (FIG. 7, 8). Format: in vivo, rat. Particulars: adult rats; lumateperone 1 to 8 mg/kg i.p., ketamine 30 mg/kg; 60 min, 90 min or 24 hours.
A short description of data set [13]: Clinical studies in acute exacerbated schizophrenia: emotional experience symptoms. Particulars: 60 mg P.O. once daily, up to 28 days; patients with acute exacerbated schizophrenia; two clinical studies.
For data set [14] the following is noted: cited from earlier work.
Data set [15] concerns phosphor-mTOR. To be noted: single antidepressant-effective dose; prefrontal cortex and hippocampus of mice and rats; cited from earlier work.
[16] abbreviates: 0.3, 3.0 or 8.0 mg/kg i.p., co-injection with LPS 500 μg/kg s.c., 2 hours, FIG. 9.

serotonin transporter (SERT), sequence (P31645 whole entry, species assumed): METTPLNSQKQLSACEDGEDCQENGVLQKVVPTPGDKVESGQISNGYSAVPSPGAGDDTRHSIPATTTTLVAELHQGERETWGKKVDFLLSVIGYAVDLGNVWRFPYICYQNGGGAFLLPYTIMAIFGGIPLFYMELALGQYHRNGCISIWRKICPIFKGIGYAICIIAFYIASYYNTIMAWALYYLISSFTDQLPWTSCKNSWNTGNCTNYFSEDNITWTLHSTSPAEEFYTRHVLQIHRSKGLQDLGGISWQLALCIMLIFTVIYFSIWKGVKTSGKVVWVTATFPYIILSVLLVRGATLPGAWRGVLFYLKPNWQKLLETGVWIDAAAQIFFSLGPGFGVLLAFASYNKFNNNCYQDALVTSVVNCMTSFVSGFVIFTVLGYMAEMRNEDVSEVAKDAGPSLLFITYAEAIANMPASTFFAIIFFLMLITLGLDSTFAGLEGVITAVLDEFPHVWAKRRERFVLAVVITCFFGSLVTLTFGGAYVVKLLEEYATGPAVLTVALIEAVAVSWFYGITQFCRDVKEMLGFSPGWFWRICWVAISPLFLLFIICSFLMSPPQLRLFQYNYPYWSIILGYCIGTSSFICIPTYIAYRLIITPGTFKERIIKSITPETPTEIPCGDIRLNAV

As to `CN1CCN2c3c(cccc31)[C@@H]1CN(CCCC(O)c3ccc(F)cc3)CC[C@@H]12` (stereo partly drawn) [IC200131], the SERT inhibition entry in data set [1] is “high SERT inhibition”. For the same compound, the antidepressant-like behaviors entry in data set [2] is “elicit antidepressant-like behaviors”.
As for `CN1CCN2c3c(cccc31)[C@@H]1CN(CCCC(=O)c3ccc(F)cc3)CC[C@@H]12` [Lumateperone, 4-((6bR,10aS)-3-methyl-2,3,6b,9,10,10a-hexahydro-1H-pyrido[3′,4′:4,5]pyrrolo[1,2,3-de]quinoxalin-8(7H)-yl)-1-(4-fluorophenyl)-1-butanone], the SERT inhibition entry in data set [1] was “very high SERT inhibition”. In addition, in data set [3] (3.0 mg/kg, given 30 minutes after LPS, FIG. 10), the “hippocampal inflammatory cytokine production, delayed dosing” value was “suppresses inflammatory cytokine production”. Besides, in data set [3] (setting [16]), the “hippocampal anti-inflammatory cytokine mRNA (IL-4, IL-10)” value was “significantly enhanced” and the “hippocampal pro-inflammatory cytokine mRNA (IL-1β, IL-6, TNFα, CCL2)” value is reported as “significantly attenuated”. In addition, in data set [4], the “hippocampal CCL2 and IL-10 levels” value was “elevated”; the “hippocampal expression of pro-inflammatory cytokines by qPCR” value is “generally depressed”. In addition, in data set [5], the “stress effects on serum IL-1ρ and IL-6” value is “significantly attenuates”; the “stress effects on serum TNF and IL-10” value is listed as “trends, but not statistically significant”. The NMDA currents entry in data set [6] (bath applied to rat mPFC slices, 3-100 nM, 5 min later) is “enhanced”. In addition, in data set [6] (lumateperone 30 nM, SCH-23390 1 μM), the “effect on NMDA and AMPA currents in the presence of the D1 receptor antagonist SCH-23390” value was “fully blocked”. Also, the AMPA currents entry in data set [7] is “enhanced”. For the same compound, the “duration of effect on phospho-protein levels at 24 hours” value in [8] (compared with ketamine 30 mg/kg) is given as “longer lasting effect compared with ketamine”. Besides, the “AKT thr308 phosphorylation effect at 24 hours versus ketamine” value in data set [8] (lumateperone 3 mg/kg vs ketamine 30 mg/kg i.p., not declining in intensity (FIG. 8)) is reported as “stronger at 24 hours than for ketamine”. In addition, in data set [8], the “mTOR phosphorylation (Serine 2448)” value was “Neither ketamine nor lumateperone results in a change”, the “p70s6K phosphorylation (Threonine 389)” value is given as “progressively increases” and the “phosphorylation of AKT at thr308” value is on record as “increase phosphorylation”. Besides, in data set [9], the “Linear Change, down-regulated genes: Ctns, Jun, Polr2l, Usp21, Csf1, Sirt1, Atf4, Fclrls” value was 0.80-0.85 fold; the “Linear Change, down-regulated genes: Hc, Osmr” value is recorded as <0.500-fold; the “Linear Change, down-regulated genes: Nfe2l2, Naglu, Pla2g4b, Npas4, Nos3” value is 0.75-0.80-fold; the “Linear Change, down-regulated genes: Ptgs2, Cp, Cntf, Tnfrsf1a, Il1R1” value is on record as 0.5-0.75-fold. In addition, in [9], the “Linear Change, up-regulated gene: Cldn5” value was >1.5 fold; the “Linear Change, up-regulated genes: Egr1, Gata2, Olig2” value is 1.25-1.5 fold; the “Linear Change, up-regulated genes: Phf21a, Islr2, Ngf, Arrb2, Homer1, Notch1, Rapgef2, Pde4d” value is reported as 1.1-1.25 fold; the “Linear Change, up-regulated genes: Syt4, Adcy9, Gabrb2, Slc8a1, Inppf5, Scn1a, Pten, Crebbp” value is listed as 1.0-1.1 fold. In addition, the antidepressant-like behaviors entry in data set [2] is listed as “elicit antidepressant-like behaviors”. Also, the safety and tolerability entry in data set [10] is “safe and well-tolerated”. Moreover, the symptoms of depression result in data set [11] is “improves symptoms of depression”. The “activation of the mTORC1 signaling pathway in mPFC (p-Akt thr308, p-P70S6K)” value in data set [12] is on record as “rapidly activates”. In addition, in data set [13], the “symptoms of emotional experience compared to placebo” value was “significant and unexpected improvement”.
Regarding `CNC1(c2ccccc2Cl)CCCCC1=O` (stereo not drawn) [ketamine, reference compound], in data set [8], the “mTOR phosphorylation (Serine 2448)” value is recorded as “Neither ketamine nor lumateperone results in a change”, the “p70s6K phosphorylation (Threonine 389)” value is given as “transiently increase” and the “phosphorylation of AKT at thr308” value was “increase phosphorylation”. Moreover, the “activation of the mTORC1 signaling pathway in mPFC (p-Akt thr308, p-P70S6K)” value in data set [12] is reported as “rapidly activates”. In addition, in data set [14] (40-minute infusion, total dose 0.5 mg/kg, after 24 hours, Berman et al.), the “ratings on the Hamilton Depression Rating Scale (HDRS) compared to placebo” value is “significantly improved ratings”. Besides, in [14] (intravenous infusion), the “onset of effects after intravenous infusion” value is ~4 h and the persistence of effects entry is “up to 2 weeks”. In addition, the “onset of induction of phosphor-mTOR after administration” value in data set [15] is ≤ 30 min.
